The record followed here is patent US10399939B2, “Tetrahydronaphthalene estrogen receptor modulators and uses thereof” (Genentech, Inc., priority 2015, dated 2019).

The target of this assay is ER-alpha (WT) (Homo sapiens (Human), UniProt P03372). Put plainly: Breast Cancer Cell ERa High Content Fluorescence Imaging Degradation Assay (ER-alpha MCF7 HCS). The assay is classed as cell-based. The conditions noted are these: MCF7 breast cancer cells; for EC50: 4 hours incubation, inflexion point of curve; for ER-alpha (WT) MCF7 HCS (S inf): plateau of the maximal effect (ERa degradation), DMSO and 5 nM Fulvestrant define 0% and 100% changes in ESR1. How it is done:
Example 901: Breast Cancer Cell ERa High Content Fluorescence Imaging Degradation Assay
MCF7 breast cancer cells were seeded on day 1 at a density of 10,000 cells per well in 384 well poly-lysine coated tissue culture plate (Greiner # T-3101-4), in 50 µL/well RPMI (phenol red free), 10% FBS (Charcoal stripped), containing L-glutamine. […] Compounds and controls were dispensed using a Labcyte Echo acoustic dispenser to dispense compounds with a pre-defined serial dilution (1.8×, 10 point, in duplicate) and appropriate backfill and control compounds (final total volume transferred was 417.5 nL and compound dispense volume ranges from 2.5 nL to 417.5 nL; 0.84% DMSO (v/v) final), ultimately producing a concentration range from 0.05 nM to 835 nM. Cell plates were incubated at 37° C., for 4 hours. Fixation and permeabilization were carried out using a Biotek EL406 plate washer and dispenser as follows. Cells were fixed by addition of 15 μL of 16% paraformaldehyde (Electron Microscopy Sciences #15710-S) directly to the 50 μL cell culture medium in each well using the peristaltic pump 5 μL cassette on a Biotek EL406 (final concentration of formaldehyde was 3.7% w/v). Samples were incubated 30 minutes. Well contents was aspirated and 50 μL/well of Phosphate Buffered Saline (PBS) containing 0.5% w/v bovine serum albumen, 0.5% v/v Triton X-100 (Antibody Dilution Buffer) was added to each well. Samples were incubated for 30 minutes. Well contents were aspirated and washed 3 times with 100 μL/well of PBS. Immunofluorescence staining of estrogen receptor alpha (ESR1) was carried out using a Biotek EL406 plate washer and dispenser as follows. The well supernatant was aspirated from the wells and 25 μL/well of anti-ESR1 mAb (F10) (Santa Cruz sc-8002) diluted 1:1000 in Antibody Dilution Buffer was dispensed. Samples were incubated for 2 hours at room temperature. Samples were washed 4 times with 100 μL/well of PBS. 25 μL (microliters)/well of secondary antibody solution (Alexafluor® 488 conjugate anti-mouse IgG (LifeTechnologies #A21202) diluted 1:1000 and Hoechst 33342 1 μg/ml diluted in Antibody Dilution Buffer) were dispensed into each well. Samples were incubated for 2 hours at room temperature. Samples were washed 3 times with 100 μL/well of PBS using a Biotek EL406. Quantitative fluorescence imaging of ESR1 was carried out using a Cellomics Arrayscan V® (Thermo). Fluorescence images of the samples (Channel 1: XF53 Hoechst (DNA stain); Channel 2: XF53 FITC (ESR1 stain)) were acquired using a Cellomics VTI Arrayscan using the Bioapplication “Compartmental Analysis” using the auto-exposure (based on DMSO control wells) setting “peak target percentile” set to 25% target saturation for both channels. Channel 1 (DNA stain) was used to define the nuclear region (Circ). Measurements of “Mean_CircAvgIntCh2”, which is the Alexafluor 488 fluorescence intensity (ESR1) within the nuclear region, was measured on a per cell basis and averaged over all the measured cells. Data analysis was carried out using Genedata Screener Software, with DMSO and 5 nM Fulvestrant treated samples being used to define the 0% and 100% changes in ESR1. The “Robust Fit” method was used to define the inflexion point of curve (EC50) and the plateau of the maximal effect (Sinf).

Chain of ER-alpha (WT) (P03372 whole entry): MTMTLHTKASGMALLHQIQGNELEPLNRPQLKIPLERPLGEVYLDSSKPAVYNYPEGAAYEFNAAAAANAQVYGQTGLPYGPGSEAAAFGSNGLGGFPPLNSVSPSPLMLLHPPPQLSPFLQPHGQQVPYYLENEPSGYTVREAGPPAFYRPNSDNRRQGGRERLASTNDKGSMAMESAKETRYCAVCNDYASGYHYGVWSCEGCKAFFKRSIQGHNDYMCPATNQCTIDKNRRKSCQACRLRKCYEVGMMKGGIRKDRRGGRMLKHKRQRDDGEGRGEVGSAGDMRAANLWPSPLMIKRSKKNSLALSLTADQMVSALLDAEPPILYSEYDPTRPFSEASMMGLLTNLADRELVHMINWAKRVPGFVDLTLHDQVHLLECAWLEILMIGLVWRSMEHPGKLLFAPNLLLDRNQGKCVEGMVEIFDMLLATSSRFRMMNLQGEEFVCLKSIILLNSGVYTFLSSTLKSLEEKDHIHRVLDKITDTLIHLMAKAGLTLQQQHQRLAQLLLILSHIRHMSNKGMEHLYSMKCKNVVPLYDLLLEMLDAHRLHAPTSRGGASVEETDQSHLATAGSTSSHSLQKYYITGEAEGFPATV

The EC50 is the midpoint of the concentration-response curve. Low readings indicate an effect from little substance, high ones a need for much substance. In the case of `Oc1ccc2c(c1)CC[C@H](C1CCOCC1)[C@@H]2c1ccc(OCCN2CC(CF)C2)cc1` [Compound 107, (5R,6R)-5-(4-(2-(3-(fluoromethyl)azetidin-1-yl)ethoxy)phenyl)-6-(tetrahydro-2H-pyran-4-yl)-5,6,7,8-tetrahydronaphthalen-2-ol], a half-maximal effect (EC50) was put at 16.4 nM and the “ER-alpha (WT) MCF7 HCS (S inf)” value is −87.8%.
`Oc1ccc2c(c1)CC[C@@H](c1ccccc1)[C@H]2c1ccc(OCCN2CC(CF)C2)cc1F` [Compound 119, (5R,6R)-5-(2-fluoro-4-(2-(3-(fluoromethyl)azetidin-1-yl)ethoxy)phenyl)-6-phenyl-5,6,7,8-tetrahydronaphthalen-2-ol]: the 50% effective concentration (EC50) turned out to be 16.5 nM and the “ER-alpha (WT) MCF7 HCS (S inf)” value was −85%.
`Oc1ccc2c(c1)CC[C@@H](c1ccc(F)cc1)[C@H]2c1ccc(OCCN2CC(CF)C2)cc1` [Compound 103, (1S,2R)-1-[4-[2-[3-(fluoromethyl)azetidin-1-yl]ethoxy]phenyl]-2-(4-fluorophenyl)tetralin-6-ol]: the concentration giving a half-maximal response (EC50) is 38.6 nM and the “ER-alpha (WT) MCF7 HCS (S inf)” value is −78%.
